Values after ≈ are worked out from the molar mass of the structure shown. Values joined by “and” are separate entries in the source; they are usually repeats but may differ in a detail not shown here. Equal values may be shown once. Read-outs that look alike come from different tables or passages of the source.
Legend:
[1] = system: C. auris AR Bank # 0390 (strain L); assay: MIC determination (broth microdilution); format: cell-based, Candida auris; conditions: strain L = C. auris AR Bank # 0390; MIC-0; 48 h (CAS read at 24 h); Table 1 row printed without letter, below L; also in Table 2
[2] = system: C. neoformans CN1 (strain N); assay: MIC determination (broth microdilution); format: cell-based, Cryptococcus neoformans; conditions: MIC-0, 72 h at 35° C.
[3] = system: C. auris AR Bank # 0384 (strain K); assay: MIC determination (broth microdilution); format: cell-based, Candida auris; conditions: strain K = C. auris AR Bank # 0384; MIC-0; 48 h (CAS read at 24 h); Table 1; also in Table 2
[4] = system: C. auris AR Bank # 0381 (strain I); assay: MIC determination (broth microdilution); format: cell-based, Candida auris; conditions: strain I = C. auris AR Bank # 0381; MIC-0; 48 h (CAS read at 24 h)
[5] = system: C. auris AR Bank # 0390 (strain L) pre-formed biofilm; format: cell-based, Candida auris; conditions: biofilm treated at 24 h, XTT
[6] = system: C. albicans ATCC 64124(R) (strain F); format: cell-based, Candida albicans; conditions: strain F = C. albicans ATCC 64124(R); MIC-0; 48 h; listed as printed beside letter G
[7] = system: C. albicans ATCC MYA-2876(S) (strain E); assay: MIC determination (broth microdilution); format: cell-based, Candida albicans; conditions: strain E = C. albicans ATCC MYA-2876(S); MIC-0; 48 h; listed as printed beside letter F
[8] = system: C. auris AR Bank # 0385 (strain IV); assay: MIC determination (broth microdilution); format: cell-based, Candida auris; conditions: strain IV = C. auris AR Bank # 0385; MIC-0; 48 h (CAS read at 24 h)
[9] = system: C. albicans ATCC MYA-2310(S) (strain D); assay: MIC determination (broth microdilution); format: cell-based, Candida albicans; conditions: strain D = C. albicans ATCC MYA-2310(S); MIC-0; 48 h; listed as printed beside letter E
[10] = system: C. auris AR Bank # 0386 (strain V); assay: MIC determination (broth microdilution); format: cell-based, Candida auris; conditions: strain V = C. auris AR Bank # 0386; MIC-0; 48 h (CAS read at 24 h)
[11] = system: A. terreus ATCC MYA-3633 (strain R); format: cell-based, Aspergillus terreus; conditions: strain R = A. terreus ATCC MYA-3633; MIC-0; 72 h at 35° C.
[12] = system: A. flavus ATCC MYA-3631 (strain S); assay: MIC determination (broth microdilution); format: cell-based, Aspergillus flavus; conditions: strain S = A. flavus ATCC MYA-3631; MIC-0; 72 h at 35° C.
[13] = system: C. auris AR Bank # 0384 (strain K) biofilm; format: cell-based, Candida auris; conditions: treated at 0 h, XTT
A549 = assay: Mammalian cytotoxicity assay (resazurin cell viability); format: cell-based; conditions: A549 (human lung carcinoma); read-out: IC50 for mammalian cell lines
Source text: (§1) For cytotoxicity assays, the human embryonic kidney cell line (HEK-293) was purchased from the ATCC. The human bronchial epithelial cell line (BEAS-2B), the human lung carcinoma cell line (A549), and the mouse macrophage cell line (J774A.1) were generous gifts from Prof. David K. Orren (University of Kentucky, Lexington, Ky.), Prof. Markos Leggas (University of Kentucky, Lexington, Ky.), and Prof. David J. Feola (University of Kentucky, Lexington, Ky.), respectively. A549, HEK-293, and BEAS-2B cells were cultured in Dulbecco's Modified Eagle's Medium (DMEM, catalog #VWRL0100, VWR, Chicago, Ill.) supplemented with 10% fetal bovine serum (FBS; from ATCC) and 1% penicillin/streptomycin (from ATCC) at 37° C. with 5% CO2. The J774A.1 cells were cultured in DMEM (catalog #30-2002, ATCC, Manassas, Va.), which was also supplemented with FBS and antibiotics and grown at 37° C. with 5% CO2.
(§2) To examine whether the compounds are safe for human cells, cytotoxicity assays were done against four mammalian cell lines: HEK-293, A549, BEAS-2B, and J774A.1 cells. […] HEK-293 and J774A.1 cells were plated at 1×10^4 cells/mL while A549 and BEAS-2B were plated at 3×10^3 cells/mL. Compounds were tested in concentrations ranging from 0.06 to 15.6 μg/mL with final concentration of DMSO at 0.5% (FIG. 4A-D).

BEAS-2B = assay: as above; format: cell-based; conditions: BEAS-2B (human bronchial epithelial); read-out: IC50 for mammalian cell lines
Source text: as §1, §2

HEK-293 = assay: as above; format: cell-based; conditions: HEK-293 (human embryonic kidney); read-out: IC50 for mammalian cell lines
Source text: as §1, §2

J774A.1 = assay: as above; format: cell-based; conditions: J774A.1 (murine macrophage); read-out: IC50 for mammalian cell lines
Source text: as §1, §2

[14] = system: four mammalian cell lines (A549, BEAS-2B, HEK-293, J774A.1); assay: Mammalian cytotoxicity assays, summary over cell lines; format: cell-based; conditions: for IC50: read-out: IC50 values (range over cell lines); for cell survival: at 15.6 μg/mL, excluding auranofin with J774A.1
Source text: as §1, §2

`C[C@@H]1[C@H](O)[C@@H](C)/C=C/C=C/C=C/C=C/C=C/C=C/C=C/[C@H](O[C@@H]2O[C@H](C)[C@@H](O)[C@H](N)[C@@H]2O)C[C@@H]2O[C@](O)(C[C@@H](O)C[C@@H](O)[C@H](O)CC[C@@H](O)C[C@@H](O)CC(=O)O[C@H]1C)C[C@H](O)[C@H]2C(=O)O` [AmB, amphotericin B, reference compound] was tested, and the MIC [1] was 1.95 µg/mL (≈ 2.11 µM), the “MIC (in parentheses)” value [1] was 2.1 µM (≈ 1.94 µg/mL) and the MIC [2] was 0.98 µg/mL (≈ 1.06 µM). The “MIC (in parentheses)” value [2] was 1.1 µM (≈ 1.02 µg/mL), the MIC [3] was 1.95 µg/mL (≈ 2.11 µM) and the “MIC (in parentheses)” value [3] was 2.1 µM (≈ 1.94 µg/mL). For the same molecule, the MIC [4] was 1.95 µg/mL (≈ 2.11 µM), the “MIC (in parentheses)” value [4] was 2.1 µM (≈ 1.94 µg/mL) and the “Pre-formed biofilm SMIC90” value [5] was 7.8 µg/mL. For the same molecule, the MIC [6] was 3.9 µg/mL (≈ 4.22 µM), the “MIC (in parentheses)” value [6] was 4.2 µM (≈ 3.88 µg/mL) and the MIC [7] was 3.9 µg/mL (≈ 4.22 µM). For the same molecule, the “MIC (in parentheses)” value [7] was 4.2 µM (≈ 3.88 µg/mL), the MIC [8] was 1.95 µg/mL (≈ 2.11 µM) and the “MIC (in parentheses)” value [8] was 2.1 µM (≈ 1.94 µg/mL). For the same molecule, the MIC [9] was 7.8 µg/mL (≈ 8.44 µM), the “MIC (in parentheses)” value [9] was 8.4 µM (≈ 7.76 µg/mL) and the MIC [10] was 1.95 µg/mL (≈ 2.11 µM). The “MIC (in parentheses)” value [10] was 2.1 µM (≈ 1.94 µg/mL), the MIC [11] was 7.8 µg/mL (≈ 8.44 µM) and the “MIC (in parentheses)” value [11] was 8.4 µM (≈ 7.76 µg/mL). The MIC [12] was 31.3 µg/mL (≈ 33.9 µM), the “MIC (in parentheses)” value [12] was 33.8 µM (≈ 31.2 µg/mL) and the “Biofilm prevention SMIC90” value [13] was 1.95 µg/mL.

With `CC(=O)OC[C@H]1O[C@@H]([S-])[C@H](OC(C)=O)[C@@H](OC(C)=O)[C@@H]1OC(C)=O.CCP(CC)CC.[Au+]` [Auranofin, auranofin, reference compound] the MIC [1] was over 31.3 µg/mL, the “MIC (in parentheses)” value [1] was over 46.1 µM and the MIC [2] was 3.9 µg/mL. The “MIC (in parentheses)” value [2] was 5.7 µM, the MIC [3] was over 31.3 µg/mL and the “MIC (in parentheses)” value [3] was over 46.1 µM. For the same molecule, the “Pre-formed biofilm SMIC90” value [5] was over 31.3 µg/mL, the MIC [6] was over 31.3 µg/mL and the “MIC (in parentheses)” value [6] was over 46.1 µM. For the same molecule, the IC50 (A549) was 500 ± 100 nM, the IC50 (BEAS-2B) was 1300 ± 100 nM and the IC50 (HEK-293) was 3000 ± 200 nM. The IC50 (J774A.1) was 16200 nM, the IC50 ([14]; A549, BEAS-2B, and HEK-293 cell lines) was 500 to 3000 nM and the “cell survival” value [14] was “no cell survival”. The MIC [7] was over 31.3 µg/mL, the “MIC (in parentheses)” value [7] was over 46.1 µM and the MIC [9] was over 31.3 µg/mL. For the same molecule, the “MIC (in parentheses)” value [9] was over 46.1 µM, the MIC [11] was 7.8 µg/mL and the “MIC (in parentheses)” value [11] was 11.5 µM. The MIC [12] was over 31.3 µg/mL, the “MIC (in parentheses)” value [12] was over 46.1 µM and the “Biofilm prevention SMIC90” value [13] was over 31.3 µg/mL.

With “bis-[1,2-bis[(2R,5R)-2,5-dimethylfphospholano]benzene]gold(1) [Compound 6]” the MIC [1] was 1.95 µg/mL, the “MIC (in parentheses)” value [1] was 2.3 µM and the MIC [2] was 0.49 µg/mL. For the same molecule, the “MIC (in parentheses)” value [2] was 0.6 µM, the MIC [3] was 1.95 µg/mL and the “MIC (in parentheses)” value [3] was 2.3 µM. The MIC [4] was 0.98 µg/mL, the “MIC (in parentheses)” value [4] was 1.2 µM and the “Pre-formed biofilm SMIC90” value [5] was 7.8 µg/mL. The MIC [6] was 0.49 µg/mL, the “MIC (in parentheses)” value [6] was 0.6 µM and the IC50 (A549) was 2500 ± 200 nM. It also gave an IC50 (BEAS-2B) of 4900 ± 300 nM, an IC50 (HEK-293) of 5700 ± 500 nM and an IC50 (J774A.1) of 1500 ± 100 nM. The “cell survival” value [14] was “no cell survival”, the MIC [7] was 0.49 µg/mL and the “MIC (in parentheses)” value [7] was 0.6 µM. The MIC [8] was 1.95 µg/mL, the “MIC (in parentheses)” value [8] was 2.3 µM and the MIC [9] was 0.49 µg/mL. For the same molecule, the “MIC (in parentheses)” value [9] was 0.6 µM, the MIC [10] was 3.9 µg/mL and the “MIC (in parentheses)” value [10] was 4.6 µM. For the same molecule, the MIC [11] was 3.9 µg/mL, the “MIC (in parentheses)” value [11] was 4.6 µM and the MIC [12] was 7.8 µg/mL. For the same molecule, the “MIC (in parentheses)” value [12] was 9.2 µM and the “Biofilm prevention SMIC90” value [13] was 3.9 µg/mL.

In the case of “bis-[1,2-bis[(2S,5S)-2,5-dimethylphospholano]benzene]gold(I) [Compound 4]”, the MIC [1] is reported as 7.8 µg/mL, the “MIC (in parentheses)” value [1] is reported as 9.2 µM and the MIC [2] is reported as 0.98 µg/mL. The “MIC (in parentheses)” value [2] was 1.2 µM, the MIC [3] was 3.9 µg/mL and 3.96 µg/mL and the “MIC (in parentheses)” value [3] was 4.6 µM. The MIC [4] was 0.98 µg/mL, the “MIC (in parentheses)” value [4] was 1.2 µM and the “Pre-formed biofilm SMIC90” value [5] was 15.6 µg/mL. The MIC [6] was 0.98 µg/mL, the “MIC (in parentheses)” value [6] was 1.2 µM and the IC50 (A549) was 4500 nM. The IC50 (BEAS-2B) was 2000 ± 300 nM, the IC50 (HEK-293) was 1900 ± 700 nM and the IC50 (J774A.1) was 1500 ± 100 nM. For the same molecule, the IC50 ([14]; BEAS-2B, HEK-293, and J774A.1) was 1500 to 2000 nM, the “cell survival” value [14] was “no cell survival” and the MIC [7] was 0.98 µg/mL. The “MIC (in parentheses)” value [7] was 1.2 µM, the MIC [8] was 1.95 µg/mL and the “MIC (in parentheses)” value [8] was 2.3 µM. The MIC [9] was 0.98 µg/mL, the “MIC (in parentheses)” value [9] was 1.2 µM and the MIC [10] was 1.95 µg/mL. For the same molecule, the “MIC (in parentheses)” value [10] was 2.3 µM, the MIC [11] was 1.95 µg/mL and the “MIC (in parentheses)” value [11] was 2.3 µM. For the same molecule, the MIC [12] was 7.8 µg/mL, the “MIC (in parentheses)” value [12] was 9.2 µM and the “Biofilm prevention SMIC90” value [13] was 3.9 µg/mL.

— US11564394B2, “Distorted gold (I)-phosphine complexes and methods for use as antifungal agents” (University of Kentucky Research Foundation, priority 2019, dated 2023)
